Test results as given in patent publication US20100160454A1, “ANTIMICROBIAL AGENTS, COMPOSITIONS AND PRODUCTS CONTAINING THE SAME, AND METHODS OF USING THE COMPOSITIONS AND PRODUCTS” (Eastman Chemical Company, priority 2008, published 2010).

Assays:
Experiment in all cases: Microbiological challenge testing in BPW broth, graded subculture counts
Assay type in all cases: cell-based
[1] = system: Aspergillus niger Wild type; settings: A. niger
Method: (§1) The microorganisms in the table below were used in challenge tests. They were either ATCC (American Type Culture Collection) or “wild type” as indicated. Wild type organisms were problematic organisms previously isolated from chemical products.
(§2) All of the microorganisms were grown in Tryptose Soy Broth (TSB), DIFCO™ available from Becton, Dickinson and Company, containing 1% dextrose. Candida albicans and Aspergillus niger, were incubated at 22° C.+/−2° C. for at least 96 hours. All bacteria were incubated at 35° C.+/−2° C. in a humidified incubator for at least 96 hours.
(§3) Candida albicans and Aspergillus niger were also grown on Sabouraud Dextrose Agar (SABD) at 22° C. for 7 to 14 days or until full sporulation was achieved.
(§4) The following procedure was followed to determine the amount of each challenge material (inoculum broth) needed to produce a 10^8 CFU/mL challenge, which is equivalent to a final test-sample microbial concentration of 10^5 to 10^6 CFU/mL (CFU=colony forming units).
(§5) Using a sterile pipette, 1 mL of the growth from each TSB culture was transferred into tubes of 9 mL buffered water (pH 7.2 phosphate buffer) and mixed thoroughly. This was repeated to make serial 1:10 dilutions. Then, 0.1 mL of each sample and dilution was inoculated onto agar plates to produce the equivalent of a further 1:10 dilution. (C. albicans and A. niger were inoculated onto SABD and bacteria were inoculated onto Plate Count Agar (PCA), DIFCO™ available from Becton, Dickinson and Company.) (The normal volume plated for most samples was 0.1 mL. Some samples that could be very low in micro-organisms (high dilutions) were plated using 0.5 mL of inoculum, in order to produce reproducible counts.) The samples were distributed on the plates using the spread-plate technique. The spread-plate technique is carried out by spreading the sample over the entire plate surface using a sterile spreading rod while rotating the plate with a rotary auto-plater. After the inoculum was absorbed completely by the agar, each plate was inverted and incubated (fungi at 22° C.+/−2° C. and bacteria at 35° C.+/−2° C.).
(§6) After incubation for at least 48 hours, colonies that had developed on the agar plates were counted (CFU) and recorded with the corresponding dilution. If counting had to be delayed temporarily, plates were refrigerated, preferably no more than 24 hours, until they could be counted. The number of CFU/mL was determined by multiplying the plate count by the dilution factor of the plate counted.
(§7) Turbidity in Nepholemetric Turbidity Units (NTU) was measured for each serial dilution using the HF-Micro 100 Model Turbidimeter. For each microorganism, the plate counts were compared to the turbidity readings.
Aspergillus niger cultures were harvested and spores dislodged from the SABD on which they were grown by rubbing the growth gently with a sterile inoculating loop. The spores were then mixed into the broth culture that had been incubated with a sterile magnetic stir bar to reduce pellicle formation. The spore-culture mixture was filtered repeatedly through sterile, nonabsorbent cotton and harvested repeatedly, adjusting vegetative cells and spores to a level of 1.0×10^8. A hemocytometer was used to verify the final challenge concentration.
(§8) Control substrates (“broth alone”) were prepared for each microorganism separately in triplicate by adding 13.5 mL of Buffered Peptone Water broth (BPW) containing 1% dextrose to each 20-mL glass tube, then adding 1.5 mL challenge material to produce a final concentration at time zero of 10^5 to 10^6 CFU/mL and a total volume of 15 mL.

[2] = system: Candida albicans Wild type; settings: C. albicans
Method: as §1, §2, §3, §4, §5, §6, §7
On the day of challenge, the Candida albicans inoculum broth was poured through nonabsorbent sterile gauze and centrifuged. The […] was then diluted with buffered water (pH 7.2 phosphate buffer) until the desired turbidity was reached. Using a hemocytometer, a determination was made whether the challenge contained the desired concentration. Dilutions were made through 1.0×10^8 and three SABD spread plates were inoculated with 0.1 mL of each dilution. The plates were incubated for at least 48 hours and challenge counts were confirmed.
as §8

[3] = system: Escherichia coli ATCC 25922; settings: E. Coli
Method: as §1, §2, §4, §5, §6, §7, §8
(§9) Test sample substrates were prepared containing each test material listed below at the concentrations shown for challenge testing with each microorganism separately. Sample substrates were prepared in triplicate, except the substrates containing butoxyethanol which were prepared in duplicate. Substrates were prepared by adding BPW containing 1% dextrose to each 20-mL glass tube, then adding the test material in the amount appropriate to achieve the desired weight/volume percent and to achieve a total volume of BPW plus dextrose plus test material of 13.5 mL. Then 1.5 mL challenge material was added to produce a final concentration at time zero of 10^5 to 10^6 CFU/mL and a total test sample substrate volume of 15 mL.

[4] = system: Proteus vulgaris Wild type
Method: as §1, §2, §4, §5, §6, §7, §8, §9

[5] = system: Staphylococcus epidermidis ATCC 12228
Method: as §1, §2, §4, §5, §6, §7, §8, §9

OCC1CCCC(CO)C1 (stereo not drawn) [1,3-CHDM, 1,3-cyclohexanedimethanol]
Grade ([1]; 0.5% (wt/vol), 3 day): 5
Grade ([1]; 0.5% (wt/vol), 13 day): 5
Grade ([1]; 0.5% (wt/vol), 30 day): 5
Grade ([1]; 1.25% (wt/vol), 3 day): 5
Grade ([1]; 1.25% (wt/vol), 13 day): 4
Grade ([1]; 1.25% (wt/vol), 30 day): 4
Grade ([1]; 2.5% (wt/vol), 3 day): 4
Grade ([1]; 2.5% (wt/vol), 13 day): 4
Grade ([1]; 2.5% (wt/vol), 30 day): 4
Grade ([1]; 5.0% (wt/vol), 3 day): 2 (Countable (10 to 100 colonies))
Grade ([1]; 5.0% (wt/vol), 13 day): 2 (Countable (10 to 100 colonies))
Grade ([1]; 5.0% (wt/vol), 30 day): 4
Grade ([2]; 0.5% (wt/vol), 3 day): 4 (1000 to 10,000 colonies countable (thus 10,000 CFU/mL to 100,000 CFU/mL))
Grade ([2]; 0.5% (wt/vol), 14 day): 4 (1000 to 10,000 colonies countable (thus 10,000 CFU/mL to 100,000 CFU/mL))
Grade ([2]; 0.5% (wt/vol), 30 day): 4 (1000 to 10,000 colonies countable (thus 10,000 CFU/mL to 100,000 CFU/mL))
Grade ([2]; 1.25% (wt/vol), 3 day): 4 (1000 to 10,000 colonies countable (thus 10,000 CFU/mL to 100,000 CFU/mL))
Grade ([2]; 1.25% (wt/vol), 14 day): 4 (1000 to 10,000 colonies countable (thus 10,000 CFU/mL to 100,000 CFU/mL))
Grade ([2]; 1.25% (wt/vol), 30 day): 4 (1000 to 10,000 colonies countable (thus 10,000 CFU/mL to 100,000 CFU/mL))
Grade ([2]; 2.5% (wt/vol), 3 day): 4 (1000 to 10,000 colonies countable (thus 10,000 CFU/mL to 100,000 CFU/mL))
Grade ([2]; 2.5% (wt/vol), 14 day): 4 (1000 to 10,000 colonies countable (thus 10,000 CFU/mL to 100,000 CFU/mL))
Grade ([2]; 2.5% (wt/vol), 30 day): 4 (1000 to 10,000 colonies countable (thus 10,000 CFU/mL to 100,000 CFU/mL))
Grade ([2]; 5.0% (wt/vol), 3 day): 0
Grade ([2]; 5.0% (wt/vol), 14 day): 2 (52 to 100 colonies counted (thus 520 to 1000 CFU/mL))
Grade ([2]; 5.0% (wt/vol), 30 day): 3 (100 to 1000 colonies (thus 1000 to 10,000 CFU/mL))
Grade ([3]; 0.5% (wt/vol), 3 day): 5 (More than 10,000 colonies estimated (thus more than 100,000 CFU/mL))
Grade ([3]; 0.5% (wt/vol), 14 day): 5 (More than 10,000 colonies estimated (thus more than 100,000 CFU/mL))
Grade ([3]; 0.5% (wt/vol), 30 day): 5 (More than 10,000 colonies estimated (thus more than 100,000 CFU/mL))
Grade ([3]; 1.25% (wt/vol), 3 day): 5 (More than 10,000 colonies estimated (thus more than 100,000 CFU/mL))
Grade ([3]; 1.25% (wt/vol), 14 day): 4 (1000 to 10,000 colonies countable (thus 10,000 CFU/mL to 100,000 CFU/mL))
Grade ([3]; 1.25% (wt/vol), 30 day): 4 (1000 to 10,000 colonies countable (thus 10,000 CFU/mL to 100,000 CFU/mL))
Grade ([3]; 2.5% (wt/vol), 3 day): 5 (More than 10,000 colonies estimated (thus more than 100,000 CFU/mL))
Grade ([3]; 2.5% (wt/vol), 14 day): 4 (1000 to 10,000 colonies countable (thus 10,000 CFU/mL to 100,000 CFU/mL))
Grade ([3]; 2.5% (wt/vol), 30 day): 4 (1000 to 10,000 colonies countable (thus 10,000 CFU/mL to 100,000 CFU/mL))
Grade ([3]; 5.0% (wt/vol), 3 day): 4 (1000 to 10,000 colonies countable (thus 10,000 CFU/mL to 100,000 CFU/mL))
Grade ([3]; 5.0% (wt/vol), 14 day): 3 (100 to 1000 colonies (thus 1000 to 10,000 CFU/mL))
Grade ([3]; 5.0% (wt/vol), 30 day): 4 (1000 to 10,000 colonies countable (thus 10,000 CFU/mL to 100,000 CFU/mL))
P. vulgaris growth grade, 3 day ([4]; 0.5% weight/volume): 5 (More than 10,000 colonies estimated (thus more than 100,000 CFU/mL))
P. vulgaris growth grade, 13 day ([4]; 0.5% weight/volume): 5 (More than 10,000 colonies estimated (thus more than 100,000 CFU/mL))
P. vulgaris growth grade, 30 day ([4]; 0.5% weight/volume): 5 (More than 10,000 colonies estimated (thus more than 100,000 CFU/mL))
P. vulgaris growth grade, 3 day ([4]; 1.25% weight/volume): 5 (More than 10,000 colonies estimated (thus more than 100,000 CFU/mL))
P. vulgaris growth grade, 13 day ([4]; 1.25% weight/volume): 4 (1000 to 10,000 colonies countable (thus 10,000 CFU/mL to 100,000 CFU/mL))
P. vulgaris growth grade, 30 day ([4]; 1.25% weight/volume): 4 (1000 to 10,000 colonies countable (thus 10,000 CFU/mL to 100,000 CFU/mL))
P. vulgaris growth grade, 3 day ([4]; 2.5% weight/volume): 4 (1000 to 10,000 colonies countable (thus 10,000 CFU/mL to 100,000 CFU/mL))
P. vulgaris growth grade, 13 day ([4]; 2.5% weight/volume): 4 (1000 to 10,000 colonies countable (thus 10,000 CFU/mL to 100,000 CFU/mL))
P. vulgaris growth grade, 30 day ([4]; 2.5% weight/volume): 4 (1000 to 10,000 colonies countable (thus 10,000 CFU/mL to 100,000 CFU/mL))
P. vulgaris growth grade, 3 day ([4]; 5.0% weight/volume): 4 (1000 to 10,000 colonies countable (thus 10,000 CFU/mL to 100,000 CFU/mL))
P. vulgaris growth grade, 13 day ([4]; 5.0% weight/volume): 4 (1000 to 10,000 colonies countable (thus 10,000 CFU/mL to 100,000 CFU/mL))
P. vulgaris growth grade, 30 day ([4]; 5.0% weight/volume): 4 (1000 to 10,000 colonies countable (thus 10,000 CFU/mL to 100,000 CFU/mL))
S. epidermidis growth grade, 3 day ([5]; 0.5% weight/volume): 4 (1000 to 10,000 colonies countable (thus 10,000 CFU/mL to 100,000 CFU/mL))
S. epidermidis growth grade, 13 day ([5]; 0.5% weight/volume): 4 (1000 to 10,000 colonies countable (thus 10,000 CFU/mL to 100,000 CFU/mL))
S. epidermidis growth grade, 30 day ([5]; 0.5% weight/volume): 4 (1000 to 10,000 colonies countable (thus 10,000 CFU/mL to 100,000 CFU/mL))
S. epidermidis growth grade, 3 day ([5]; 1.25% weight/volume): 4 (1000 to 10,000 colonies countable (thus 10,000 CFU/mL to 100,000 CFU/mL))
S. epidermidis growth grade, 13 day ([5]; 1.25% weight/volume): 3.7
S. epidermidis growth grade, 30 day ([5]; 1.25% weight/volume): 4 (1000 to 10,000 colonies countable (thus 10,000 CFU/mL to 100,000 CFU/mL))
S. epidermidis growth grade, 3 day ([5]; 2.5% weight/volume): 4 (1000 to 10,000 colonies countable (thus 10,000 CFU/mL to 100,000 CFU/mL))
S. epidermidis growth grade, 13 day ([5]; 2.5% weight/volume): 3 (100 to 1000 colonies (thus 1000 to 10,000 CFU/mL))
S. epidermidis growth grade, 30 day ([5]; 2.5% weight/volume): 4 (1000 to 10,000 colonies countable (thus 10,000 CFU/mL to 100,000 CFU/mL))
S. epidermidis growth grade, 3 day ([5]; 5.0% weight/volume): 2 (52 to 100 colonies counted (thus 520 to 1000 CFU/mL))
S. epidermidis growth grade, 13 day ([5]; 5.0% weight/volume): 1 (0 to 51 colonies counted (thus 10 to 510 CFU/mL based on 0.1-mL sample))
S. epidermidis growth grade, 30 day ([5]; 5.0% weight/volume): 3 (100 to 1000 colonies (thus 1000 to 10,000 CFU/mL))
